# Experimental data reported in US20230121313A1 (priority 2019, published 2023).
# Assays:
# [1] = tested on: elderly subjects with TRD; assay: MADRS total score, Study […]3005 (change, response, remission); assay type: in vivo, human
# Method: The primary objective of this study was to evaluate the efficacy of switching elderly subjects with treatment-resistant depression (TRD) from a prior antidepressant treatment (to which they have not responded) to flexibly dosed intranasal esketamine (28 mg, 56 mg or 84 mg) plus a newly initiated oral antidepressant compared with switching to a newly initiated oral antidepressant plus intranasal placebo, in improving depressive symptoms, as assessed by the change from baseline in the Montgomery-Asberg Depression Rating Scale (MADRS) total score from Day 1 (pre-randomization) to the end of the 4-week double-blind induction phase.
# Primary Efficacy Evaluation: The primary efficacy evaluation is described in Example 1. Key Secondary Efficacy Evaluation (Clinician-completed): The key secondary efficacy evaluation (clinician-completed) is described in Example 1. Key Secondary Efficacy Evaluation (Patient-reported Outcome): The key secondary efficacy evaluation (patient-reported outcome) is described in Example 1. Primary Endpoint: The primary efficacy endpoint is described in Example 1. Primary Endpoint Results: The primary endpoint results are the same as described in Example 1. See, Table 34 and FIG. 19.
# As specified in the SAP, the weighted combination test was the primary analysis for the primary efficacy endpoint since an interim analysis for sample size re-estimation was conducted. A post-hoc analysis using an unweighted MMRM analysis (essentially disregarding the interim analysis) was performed and the one-sided p-value was 0.018 using this approach. The post-hoc one-sided p-value was 0.017 using the unweighted ANCOVA analysis.
# Response (≥50% improvement from baseline in the MADRS total score) and Remission (MADRS total score is ≤12) rates are presented in Table 35.
# For the clinician-rated assessments, MADRS was administered at baseline and days 8, 15, 22 and 28. MADRS scores were obtained remotely by telephone by independent raters blinded to subject's treatment response. Similarly, the Clinical Global Impressions-Severity (CGI-S) scale was administered at baseline; days 4, 8, 11, 15, 18, 22, 25; and at the 4-week double-blind end point.
# For the MADRS, PHQ-9, and SDS total scores, the test for treatment effect was based on mixed model for repeated measures (MMRM) on observed case data with change from baseline as the response variable and the fixed effect model terms for treatment (ESK+AD, AD+PBO), day, class of oral AD (SNRI or SSRI), and treatment-by-day, and baseline value as a covariate. […]
# Efficacy was determined by measuring MADRS total scores, SDS scores, PHQ-9 scores and CGI-S scores. […]
# [2] = tested on: subjects with MDD at imminent risk for suicide; assay: MADRS suicide item, Study […]2001; assay type: in vivo, human; details: 84 mg
# Description: • a. Changes from baseline to Day 2 and Day 25 for the MADRS total score • b. Changes from baseline to Day 1 4-hours postdose, Day 2 and Day 25 for the MADRS Suicide Item • c. Changes from baseline to Day 1 4-hours postdose, Day 2, and Day 25 for the clinical global judgment of suicide risk from the Suicide Ideation and Behavior Assessment Tool (SIBAT) • d. Sustained response (Onset of Clinical Response) defined as at least 50% reduction from baseline in MADRS total score with onset on Day 1 that is maintained through the end of the double-blind phase (Day 25) • e. Changes from baseline to Day 1 4-hours postdose, Day 2, and Day 25 for the Beck Scale for Suicidal Ideation (BSS) • f. Changes from baseline to Day 1 4-hours postdose and Day 25 for the Beck Hopelessness Scale
# Results of the change from baseline over time for the suicide item from the MADRS assessment can be found in Attachment 1.
structure (smiles),measurement,setting,value
"CN[C@]1(c2ccccc2Cl)CCCCC1=O [esketamine, (S)-2-(2-chlorophenyl)-2-(methylamino)cyclohexanone]","MADRS total score: difference in LS mean change (SE), MMRM","[1]; Day 28, subjects aged 65-74",−4.9 (2.04)
same,"MADRS total score: difference in LS mean change (SE), MMRM","[1]; Day 28, subjects aged 75 and above",−0.4 (5.02)
same,MADRS total score: LS mean (SE) treatment difference,[1]; Stage 1 (enrolled before interim analysis),−1.6 (2.62)
same,MADRS total score: LS mean (SE) treatment difference,[1]; Stage 2 (enrolled after interim analysis),−5.6 (2.63)
same,"MADRS suicide item (Suicidal Thoughts), Med","[2]; Day 1 (DB): 4 H, LOCF, N 35",2.0
same,"MADRS suicide item, change from baseline, Med","[2]; Day 1 (DB): 4 H, LOCF, N 35",−3.0
same,"MADRS suicide item (Suicidal Thoughts), Med","[2]; Day 1(DB): 4 H, N 35",2.0
same,"MADRS suicide item, change from baseline, Med","[2]; Day 1(DB): 4 H, N 35",−3.0
same,"MADRS suicide item (Suicidal Thoughts), Med","[2]; Day 2(DB) LOCF, N 35",2.0
same,"MADRS suicide item, change from baseline, Med","[2]; Day 2(DB) LOCF, N 35",−3.0
same,"MADRS suicide item (Suicidal Thoughts), Med","[2]; Day 2(DB), N 35",2.0
same,"MADRS suicide item, change from baseline, Med","[2]; Day 2(DB), N 35",−3.0
same,"MADRS suicide item (Suicidal Thoughts), Med","[2]; Day 3(DB) LOCF, N 35",2.0
same,"MADRS suicide item, change from baseline, Med","[2]; Day 3(DB) LOCF, N 35",−4.0
same,"MADRS suicide item (Suicidal Thoughts), Med","[2]; Day 3(DB), N 32",2.0
same,"MADRS suicide item, change from baseline, Med","[2]; Day 3(DB), N 32",−4.0
same,"MADRS suicide item (Suicidal Thoughts), Med","[2]; Day 4(DB) LOCF, N 35",1.0
same,"MADRS suicide item, change from baseline, Med","[2]; Day 4(DB) LOCF, N 35",−4.0
same,"MADRS suicide item (Suicidal Thoughts), Med","[2]; Day 4(DB), N 24",1.0
same,"MADRS suicide item, change from baseline, Med","[2]; Day 4(DB), N 24",−4.0
same,"MADRS suicide item (Suicidal Thoughts), Med","[2]; Day 5(DB) LOCF, N 35",1.0
same,"MADRS suicide item, change from baseline, Med","[2]; Day 5(DB) LOCF, N 35",−4.0
same,"MADRS suicide item (Suicidal Thoughts), Med","[2]; Day 5(DB), N 21",0.0
same,"MADRS suicide item, change from baseline, Med","[2]; Day 5(DB), N 21",−4.0
same,"MADRS suicide item (Suicidal Thoughts), Med","[2]; Day 8(DB) LOCF, N 35",1.0
same,"MADRS suicide item, change from baseline, Med","[2]; Day 8(DB) LOCF, N 35",−4.0
same,"MADRS suicide item (Suicidal Thoughts), Med","[2]; Day 8(DB), N 31",1.0
same,"MADRS suicide item, change from baseline, Med","[2]; Day 8(DB), N 31",−4.0
same,"MADRS suicide item (Suicidal Thoughts), Med","[2]; Day 11(DB) LOCF, N 35",1.0
same,"MADRS suicide item, change from baseline, Med","[2]; Day 11(DB) LOCF, N 35",−4.0
same,"MADRS suicide item (Suicidal Thoughts), Med","[2]; Day 11(DB), N 25",0.0
same,"MADRS suicide item, change from baseline, Med","[2]; Day 11(DB), N 25",−4.0
same,"MADRS suicide item (Suicidal Thoughts), Med","[2]; Day 15(DB) LOCF, N 35",1.0
same,"MADRS suicide item, change from baseline, Med","[2]; Day 15(DB) LOCF, N 35",−4.0
same,"MADRS suicide item (Suicidal Thoughts), Med","[2]; Day 15(DB), N 29",1.0
same,"MADRS suicide item, change from baseline, Med","[2]; Day 15(DB), N 29",−4.0
same,"MADRS suicide item (Suicidal Thoughts), Med","[2]; Day 18(DB) LOCF, N 35",1.0
same,"MADRS suicide item, change from baseline, Med","[2]; Day 18(DB) LOCF, N 35",−4.0
same,"MADRS suicide item (Suicidal Thoughts), Med","[2]; Day 18(DB), N 23",1.0
same,"MADRS suicide item, change from baseline, Med","[2]; Day 18(DB), N 23",−4.0
same,"MADRS suicide item (Suicidal Thoughts), Med","[2]; Day 22(DB) LOCF, N 35",0.0
same,"MADRS suicide item, change from baseline, Med","[2]; Day 22(DB) LOCF, N 35",−4.0
same,"MADRS suicide item (Suicidal Thoughts), Med","[2]; Day 22(DB), N 28",0.0
same,"MADRS suicide item, change from baseline, Med","[2]; Day 22(DB), N 28",−4.0
same,"MADRS suicide item (Suicidal Thoughts), Med","[2]; Day 25(DB): 4 H, N 24",0.0
same,"MADRS suicide item, change from baseline, Med","[2]; Day 25(DB): 4 H, N 24",−4.5
same,"MADRS suicide item (Suicidal Thoughts), Med","[2]; Day 25(DB): Predose LOCF, N 35",0.0
same,"MADRS suicide item, change from baseline, Med","[2]; Day 25(DB): Predose LOCF, N 35",−4.0
same,"MADRS suicide item (Suicidal Thoughts), Med","[2]; Day 25(DB): Predose, N 24",0.0
same,"MADRS suicide item, change from baseline, Med","[2]; Day 25(DB): Predose, N 24",−4.5
same,"MADRS suicide item (Suicidal Thoughts), Med","[2]; Day 32(FU) LOCF, N 26",0.0
same,"MADRS suicide item, change from baseline, Med","[2]; Day 32(FU) LOCF, N 26",−4.0
same,"MADRS suicide item (Suicidal Thoughts), Med","[2]; Day 32(FU), N 26",0.0
same,"MADRS suicide item, change from baseline, Med","[2]; Day 32(FU), N 26",−4.0
same,"MADRS suicide item (Suicidal Thoughts), Med","[2]; Day 39(FU) LOCF, N 27",0.0
same,"MADRS suicide item, change from baseline, Med","[2]; Day 39(FU) LOCF, N 27",−5.0
same,"MADRS suicide item (Suicidal Thoughts), Med","[2]; Day 39(FU), N 26",0.0
same,"MADRS suicide item, change from baseline, Med","[2]; Day 39(FU), N 26",−5.0
same,"MADRS suicide item (Suicidal Thoughts), Med","[2]; Day 46(FU) LOCF, N 27",0.0
same,"MADRS suicide item, change from baseline, Med","[2]; Day 46(FU) LOCF, N 27",−4.0
same,"MADRS suicide item (Suicidal Thoughts), Med","[2]; Day 46(FU), N 25",0.0
same,"MADRS suicide item, change from baseline, Med","[2]; Day 46(FU), N 25",−4.0
same,"MADRS suicide item (Suicidal Thoughts), Med","[2]; Day 53(FU) LOCF, N 27",0.0
same,"MADRS suicide item, change from baseline, Med","[2]; Day 53(FU) LOCF, N 27",−4.0
same,"MADRS suicide item (Suicidal Thoughts), Med","[2]; Day 53(FU), N 24",0.0
same,"MADRS suicide item, change from baseline, Med","[2]; Day 53(FU), N 24",−5.0
same,"MADRS suicide item (Suicidal Thoughts), Med","[2]; Day 67(FU) LOCF, N 27",0.0
same,"MADRS suicide item, change from baseline, Med","[2]; Day 67(FU) LOCF, N 27",−4.0
same,"MADRS suicide item (Suicidal Thoughts), Med","[2]; Day 67(FU), N 26",0.0
same,"MADRS suicide item, change from baseline, Med","[2]; Day 67(FU), N 26",−4.0
same,"MADRS suicide item (Suicidal Thoughts), Med","[2]; Day 81(FU), N 24",0.0
same,"MADRS suicide item, change from baseline, Med","[2]; Day 81(FU), N 24",−5.0
same,"MADRS suicide item (Suicidal Thoughts), Med","[2]; End Point(DB), N 35",0.0
same,"MADRS suicide item, change from baseline, Med","[2]; End Point(DB), N 35",−4.0
same,"MADRS suicide item (Suicidal Thoughts), Med","[2]; End Point(FU), N 27",0.0
same,"MADRS suicide item, change from baseline, Med","[2]; End Point(FU), N 27",−5.0
